The record followed here is patent US8865763B2, “Methods and compositions for altering cell function” (Alltech, Inc., priority 2005, dated 2014).

For one series, the system named is Gst pi 1 (Gstp1). As to the kind of experiment: Microarray gene expression, mouse cerebral cortex: Gstp1. The format is in vivo. The settings on record: diet 1 ppm Se, vs Se-deficient animals, * significant. The source says: (§1) Animal Care. Male C57BL/6J mice were housed singly and started on the experimental diets described below immediately after weaning (21 days of age). The mice were maintained in the Shared Aging Rodent Facility at the William S. Middleton Memorial Veterans Administration Medical Center (Madison, Wis.). Temperature and humidity were maintained at constant levels. Room light was controlled to provide 12-hr cycles of light and dark.
(§2) Experimental diets were created by Harlan Teklad (Madison, Wis.). Selenium content of the diets was determined by Covance Inc. (Madison, Wis.). Five (5) animals were included in each of the following treatment groups: a diet deficient in selenium (SD); a diet supplemented with selenomethionine (SM, obtained from Sigma, St. Louis, Mo.) such that the final selenium content of the diet was one (1) part per million; a diet supplemented with sodium selenite (SS, Sigma) such that the final concentration of selenium in this diet was one (1) part per million; or a diet supplemented with the yeast selenium SEL-PLEX (SP, Alltech, Lexington, Ky.), such that the final concentration of selenium in this diet was one (1) part per million. SEL-PLEX. […]
(§3) Tissue sample preparation and microarray analysis. […] For intestinal expression studies, the intestine was flushed twice with saline solution and small intestine was measured and divided in three equal segments. […]

Series [1] concerns Complement component 1, r subcomponent, C1r. Briefly: Microarray gene expression, mouse cerebral cortex: C1r. Type of series: in vivo. The settings on record: diet 1 ppm Se, vs selenium deficient, * p<0.01.
Excerpt: as §1, §2, §3

The next series relates to Thioredoxin Reductase 1. Briefly: Microarray gene expression, mouse intestine: Thioredoxin Reductase 1. The settings on record: diet 1 ppm Se, vs selenium deficient, p <0.01. Type of series: in vivo.
Excerpt: as §1, §2, §3

In the next series the test system is Glutathione Peroxidase 1. As to the kind of experiment: Microarray gene expression, mouse intestine: Glutathione Peroxidase 1. The conditions noted are these: diet 1 ppm Se, vs selenium deficient, all p < 0.01. The format is in vivo.
Excerpt: as §1, §2, §3

The subject of the next series is Nicastrin. Briefly: Microarray gene expression, mouse cerebral cortex: Nicastrin. The format is in vivo. The conditions noted are these: diet 1 ppm Se, vs Se-deficient animals, * P < 0.01.
Excerpt: as §1, §2, §3

Series [2] concerns Glutathione S-transferase, mu1 (Gstm1). As to the kind of experiment: Microarray gene expression, mouse intestine: Gstm1. The format is in vivo. The conditions noted are these: diet 1 ppm Se, vs Se-deficient diets, negative = down.
Excerpt: as §1, §2, §3

Series [3] relates to Complement component 1, q subcomponent, gamma polypeptide, C1qg. Briefly: Microarray gene expression, mouse cerebral cortex: C1qg. The conditions noted are these: diet 1 ppm Se, vs selenium deficient, * p<0.01. Type of series: in vivo.
Excerpt: as §1, §2, §3

Another series concerns Glutathione Peroxidase 3. As to the kind of experiment: Microarray gene expression, mouse intestine: Glutathione Peroxidase 3. Type of series: in vivo. The conditions noted are these: diet 1 ppm Se, vs selenium deficient, all p < 0.01.
Excerpt: as §1, §2, §3

A further series has as its system Gadd45b. Briefly: Microarray gene expression, mouse cerebral cortex: Gadd45b. The format is in vivo. The settings on record: diet 1 ppm Se, vs Se-deficient animals, * significant.
Excerpt: as §1, §2, §3

Another series deals with Junb. As to the kind of experiment: Microarray gene expression, mouse cerebral cortex: Junb. The conditions noted are these: diet 1 ppm Se, vs Se-deficient animals, * significant. Type of series: in vivo.
Excerpt: as §1, §2, §3

The subject of series [4] is Type 1 iodothyronine deiodinase. As to the kind of experiment: Microarray gene expression, mouse intestine: Type 1 iodothyronine deiodinase. The format is in vivo. The settings on record: diet 1 ppm Se, vs selenium deficient.
Excerpt: as §1, §2, §3

Series [5] has as its system Amyloid beta (A4) precursor-like protein (Aplp 1). Briefly: Microarray gene expression, mouse cerebral cortex: Aplp 1. The settings on record: diet 1 ppm Se, vs Se-deficient animals, * P < 0.01. The format is in vivo.
Excerpt: as §1, §2, §3

For series [6], the system named is Amyloid beta (A4) precursor protein-binding, family A, member 1(Apba1). As to the kind of experiment: Microarray gene expression, mouse cerebral cortex: Apba1. The conditions noted are these: diet 1 ppm Se, vs Se-deficient animals, * P < 0.01. The format is in vivo.
Excerpt: as §1, §2, §3

Series [7] in a line: Body weight of mice on selenium diets. Type of series: in vivo, mouse. The conditions noted are these: diet 1 ppm Se vs selenium deficient diet; FIG. 1.
Excerpt: as §1
Experimental diets were created by Harlan Teklad (Madison, Wis.). Selenium content of the diets was determined by Covance Inc. (Madison, Wis.). […]
Thus, it was an object of the present invention to determine whether compositions and methods of the present invention could alter the expression levels (e.g., mRNA levels) of various genes. One group of genes analyzed were genes classically associated with selenium. As described above, the expression levels of genes were analyzed between mice with and without dietary selenium, or, between mice fed different sources of selenium) (See, e.g., Table 1, below).

Series [8] deals with Glutathione S-transferase, theta 2 (Gstt2). Briefly: Microarray gene expression, mouse intestine: Gstt2. The settings on record: diet 1 ppm Se, vs Se-deficient diets, negative = down. Type of series: in vivo.
Excerpt: as §1, §2, §3

The subject of a further series is Selenoprotein W (SelW). Briefly: Microarray gene expression, mouse intestine: SelW. Type of series: in vivo. The conditions noted are these: diet 1 ppm Se, vs selenium deficient.
Excerpt: as §1, §2, §3

In the next series the test system is Cathepsin B. Briefly: Microarray gene expression, mouse cerebral cortex: Cathepsin B. The format is in vivo. The conditions noted are these: diet 1 ppm Se, vs Se-deficient mice, * significant.
Excerpt: as §1, §2, §3

The subject of series [9] is Complement component 1, q subcomponent, alpha polypeptide, C1qa. Briefly: Microarray gene expression, mouse cerebral cortex: C1qa. Type of series: in vivo. The settings on record: diet 1 ppm Se, vs selenium deficient, * p<0.01.
Excerpt: as §1, §2, §3

The next series relates to Cathepsin D. Briefly: Microarray gene expression, mouse cerebral cortex: Cathepsin D. The conditions noted are these: diet 1 ppm Se, vs Se-deficient mice, * significant. Type of series: in vivo.
Excerpt: as §1, §2, §3

For a further series, the system named is Presenilin 1. As to the kind of experiment: Microarray gene expression, mouse cerebral cortex: Presenilin 1. Type of series: in vivo. The conditions noted are these: diet 1 ppm Se, vs Se-deficient animals, * P < 0.01.
Excerpt: as §1, §2, §3

Series [10] has as its system Gadd45g1p (Growth arrest and DNA-damage inducible 45 gamma interacting protein). Briefly: Microarray gene expression, mouse cerebral cortex: Gadd45g1p. The format is in vivo. The conditions noted are these: diet 1 ppm Se, vs Se-deficient animals, * significant.
Excerpt: as §1, §2, §3

For `O=[Se](O)O` [Sod-sel, sodium selenite], the “FC (fold change) expression of Gstp1” value with Gst pi 1 (Gstp1) stood at 1.02 fold. Further, in [1], the “FC (fold change) expression of C1r” value is listed as −1.29 fold. Also, the “fold increase in expression of the Thioredoxin Reductase 1 gene” value in the series with Thioredoxin Reductase 1 stood at 1.7 fold. Moreover, the “fold change in expression of Glutathione Peroxidase 1” value in the series on Glutathione Peroxidase 1 came to 4.1 fold. In the series on Nicastrin, the “FC (fold change) expression of Nicastrin” value was −1.67* fold. The “FC (fold change) expression of Gstm1” value in series [2] is listed as −2.4 fold. In addition, the “FC (fold change) expression of C1qg” value in series [3] is −1.07 fold. Also, the “fold change in expression of Glutathione Peroxidase 3” value in the series on Glutathione Peroxidase 3 was determined as 3.5 fold. Besides, the “FC (fold change) expression of Gadd45b in brain” value in the series on Gadd45b was −1.39* fold. Also, in the series with Junb, the “FC (fold change) expression of Junb” value is −1.59 fold. The “fold increase of expression level of Type 1 iodothyronine deiodinase” value in series [4] is listed as 2.8 fold. Further, the “FC (fold change) expression of Aplp 1” value in series [5] was −1.55* fold. In addition, in [6], the “FC (fold change) expression of Apba1” value is −1.41 fold. Also, the “body weights of mice” value in series [7] is “No significant differences”. The “FC (fold change) expression of Gstt2” value in series [8] is reported as −1.3 fold. Moreover, the “expression of Selenoprotein W (SelW), fold upregulated” value in the series with Selenoprotein W (SelW) was determined as 5.1 fold. Also, the “FC (fold change) expression of Cathepsin B” value in the series on Cathepsin B was −1.13* fold. The “FC (fold change) expression of C1qa” value in series [9] is −1.18 fold. Moreover, the “FC (fold change) expression of Cathepsin D” value in the series with Cathepsin D is −1.24* fold. Further, in the series on Presenilin 1, the “FC (fold change) expression of Presenilin 1” value is reported as −1.11 fold. The “FC (fold change) expression of Gadd45g1p in brain” value in [10] is reported as −1.12 fold.
